Measured values reported in patent publication US20260355166A1, “2-SUBSTITUTED PIPERIDINE DERIVATIVES, PREPARATION METHODS AND MEDICINAL USES THEREOF” (JIANGSU HANSOH PHARMACEUTICAL GROUP CO., LTD., priority 2022, published 2026).

Columns and labels:
human Factor B [1] = target: T1, human Factor B (Homo sapiens, UniProt P00751); experiment: Factor B Binding Assay by TR-FRET; details: recombinant human Factor B catalytic domain 10 nM, 100 nM tracer, 1 h
T1 construct: Recombinant human Factor B catalytic domain (a.a. 470-764, C-terminal his-tagged, produced in-house); made in house
Protocol: • 1. Recombinant human Factor B catalytic domain (a.a. 470-764, C-terminal his-tagged, produced in-house) • 2. 5× Kinase Buffer A (Thermo Fisher, CAT #PV3189) • 3. LANCE Eu-W1024 Anti-6×His Antibody (PerkinElmer, CAT #AD0401) • 4. Probe (TRFRET_tool 2, reported in WO 2015/009616)
[drawing 252] • 5. DMSO (Thermo Fisher Scientific) • 6. Compounds-10 mM stock in DMSO • 7. Victor Nivo multimode plate reader (PerkinElmer) • 8. OptiPlate-384, white opaque 384-well microplate (PerkinElmer, CAT #6007290)
Factor B binding affinity of each compound tested was determined using a time-resolved fluorescence resonance energy transfer (TR-FRET) technology. 10 nM recombinant his-tagged Factor B catalytic domain, varying concentrations of inhibitors, 4 nM LANCE Eu-W1024 Anti-6×His Antibody and 100 nM TRFRET_tool2 tracer was incubated in 1× Kinase Buffer A for 1 h. Measurement was performed in a reaction volume of 15 μL by adding 5 μL of the test compound, 5 μL of Factor B/antibody mixture and 5 μL of tracer into white opaque 384-well assay plates. The TR-FRET signal was read on a plate reader with an excitation wavelength of 340 nm and detection wavelengths of 615 and 665 nm. Binding affinity was determined for each compound by measuring TR-FRET signal at various concentrations of compound and plotting the relative fluorescence Emission Ratio (665 nm/615 nm) against the inhibitor concentration to estimate the IC50 from [Compound] vs Emission Ratio using the four parameters dose-response inhibition curve with a variable slope model in GraphPad Prism.
The binding affinity to recombinant Factor B catalytic domain of the compounds of the present invention was determined by the above assay, and IC50 values (nM) are shown in the following table.

[2] = Pharmacokinetic Studies in Rats; assay type: in vivo, brown Norway rats; details: plasma, rat
Protocol: Three-month-old brown Norway rats were administered the Example compound intravenously (0.5 mg/kg dose, formulation: 10% 1,2-Propanediol+25% (20% solutol HS 15 in water)+65% phosphate buffered saline at 0.1 mg/mL) and via oral gavage at 2 mg/kg dose as a clear solution (0.5% MC+0.5% Tween 80 in water at 1 mg/mL). Plasma was collected from rats per time point at 0.25, 0.5, 1, 6, and 24 h after administration. The concentrations of the test article were measured in plasma by HPLC-MS/MS, two individual plasma samples at each time point. Chromatographic separation was carried out on Waters BEH C18 Column (2.1×50 mm, 1.7 μm) column (MAC-MOD Analytical, Chadds Ford, PA), using a gradient elution method with water and acetonitrile, both containing 0.025% formic acid-1 mM NH4OAc. Mass spectrometric measurements in positive electrospray ionization were directed at quantifying the mass transition with [M+H]^+ as the precursor ion on API6500, triple quadruple mass spectrometer (Sciex, Framingham, MA). The relevant pharmacokinetic parameters were estimated using noncompartmental methods using WinNonlin (Enterprise, version 8.2).

[3] = system: MAC (Membrane Attack Complex) formation; experiment: Inhibition of Human MAC Deposition (AP deposition assay, LPS activation, ELISA of C5b-9); assay type: biochemical; details: human serum, LPS coated plates, GVB buffer with MgCl2 and EGTA, C5b-9 detection
Protocol: To quantify the inhibitory effects of compounds on complement protein deposition following LPS activation of the alternative complement pathway, the AP deposition assay was employed. Test concentration of the compounds started at 11.1 μM or 3.70 µM and were diluted 3-fold in DMSO to produce 8 concentration points, with each concentration tested in technical triplicates. Human serum was combined with test compounds in GVB buffer containing 5 mM MgCl2 10 mM EGTA, and was added to LPS coated black Maxisorp plates. After a period of incubation, the plate was inverted, and ELISA detection of complement proteins bound to LPS was performed. A primary antibody that detected human C5b-9 was used, followed by a compatible HRP conjugated secondary antibody. Peroxidase activity was detected using the Quantablu Fluorogenic Peroxidase substrate kit and fluorescence was measured at 340 nm/435 nm using the i3x plate reader to determine the quantity of alternative pathway complement protein deposition.

human Factor B [4] = target: T1, human Factor B; experiment: Target Residence Time of Factor B Inhibitors Determined by Surface Plasmon Resonance (SPR); assay type: binding; details: for Kd: immobilized recombinant human Factor B catalytic domain, room temperature; for t1/2 (binding half-life): t1/2=ln 2/kd; for residence time: tR=1/kd
Description: • 1. Recombinant human Factor B catalytic domain (a. a. 470-764, C-terminal his-tagged, produced in-house) • 2. PBS-P+ Buffer 10× (Cytiva, CAT #28995084) • 3. Series S Sensor Chip NTA (Cytiva, CAT #BR100532) • 4. Amine Coupling Kit (Cytiva, CAT #BR100050) • 5. DMSO (Millipore Sigma, CAT #34869-1L) • 6. Greiner 96 well plates, polypropylene (Sigma-Aldrich, CAT #M7310-100EA) • 7. Microplate Foil, 96-well (Cytiva, CAT #28975816) • 8. Biacore 8k (Cytiva)
Biacore 8k instrument was primed using 1×PBS-P+ buffer before docking a Cytiva NTA chip. Recombinant human Factor B catalytic domain were immobilized on a NTA chip to a level of about 5000 resonance units (RU) using 1×PBS-P+ buffer [[…] phosphate buffer with 2.7 mM KCl, 137 mM NaCl, and 0.05% (v/v) Tween-20]. The protein ligand was further crosslinked to sensorchip surface by amine coupling kit. Immobilization and binding experiment were performed at room temperature.
After changing buffer to 1×PBS-P+ buffer with 2% (v/v) DMSO, a pre-run was performed for a period of at least 30 min at a flow rate of 30 μl/min to obtain a stable surface. The kinetic constants of the compounds were determined by single-cycle kinetics with six consecutive injections (or multi-cycle kinetics with eight consecutive injections) with an increasing compound concentration in ranges of 0.8-200 nM, 12.5-400 nM, 4.1-1,000 nM or 41-10,000 nM depending on the potency. Single-cycle kinetics experiments were performed with an association time of 60 s per concentration and a dissociation time of 300 s (or a dissociation time of 120 s for multi-cycle kinetics experiments). A flow rate of 30 μl/min was used. A blank run with the same conditions was performed before the compound was injected.
The SPR sensorgrams were analyzed with Biacore Insight Evaluation Software by using a method of double referencing. The resulting curve was fitted with a 1:1 binding model. The kinetic constants (ka, kd, KD) of replicates were averaged. Residence time (tR) was calculated from the dissociation constant kd with the formula tR=1/kd. Binding half-life (t1/2) was calculated from the dissociation constant kd with the formula t1/2=ln 2/kd

[5] = system: rabbit reticulocyte hemolysis; experiment: Inhibition of AP Dependent Hemolysis (rabbit cells in human serum); assay type: cell-based, human serum; rabbit erythrocytes; details: Oryctolagus cuniculus, GVB buffer with MgCl2 and EGTA, 37 °C, OD405
Protocol: To quantify the inhibitory effects of compounds on the hemolytic activity of the alternative complement pathway, the AP hemolytic assay was employed. Test concentration of the compounds started at 100 μM and were diluted 3-fold in DMSO to produce 8-11 concentration points, with each concentration tested in technical triplicates. Human serum was added to rabbit reticulocytes in a solution of GVB buffer with MgCl2 and EGTA. After a period of incubation at 37 °C, spontaneous lysis of rabbit erythrocytes due to serum AP complement activity was quantified using OD405 absorbance, measured using the i3x plate reader.

T1 sequence (P00751 470-764): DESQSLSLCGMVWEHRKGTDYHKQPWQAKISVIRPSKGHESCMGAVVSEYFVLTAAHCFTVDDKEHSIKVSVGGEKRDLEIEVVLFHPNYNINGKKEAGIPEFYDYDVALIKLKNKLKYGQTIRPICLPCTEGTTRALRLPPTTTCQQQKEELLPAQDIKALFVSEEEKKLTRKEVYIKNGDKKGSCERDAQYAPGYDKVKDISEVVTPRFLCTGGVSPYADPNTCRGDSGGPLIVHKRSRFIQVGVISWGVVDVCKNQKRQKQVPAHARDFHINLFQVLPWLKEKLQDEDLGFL

Row | Structure (SMILES) | IC50 (human Factor B [1]) [nM] | bioavailability ([2]; 2 mg/kg, 0.5 mpk IV and 2 mpk PO) [%] | clearance ([2]; 0.5 mg/kg IV, read-out: 0.5 MPK IV arm CL) [mL/min/kg] | half-life ([2]; 2 mg/kg PO, read-out: T½ (h) - 2 MPK PO (converted)) [h] | AUC(0-t) ([2]; 0.5 mpk IV and 2 mpk PO (arm not printed in this column head), read-out: Plasma AUC0-last) [µM·h] | IC50 [3] [nM] | Kd (human Factor B [4]) [nM] | t1/2 (binding half-life) (human Factor B [4]) [min] | residence time (human Factor B [4]) [min] | IC50 [5] [nM]
1 | COc1cc(C)c2[nH]ccc2c1CN1CCC2(CC(F)(F)C2)CC12CCc1cc(C(=O)O)ccc12 (single isomer, unassigned) [Example 1 isomer 1, 3,3-difluoro-1′-((5-methoxy-7-methyl-1H-indol-4-yl)methyl)-2″,3″-dihydrodispiro[cyclobutane-1,4′-piperidine-2′,1″-indene]-5″-carboxylic acid] | 1.05 | 56 | 1.3 | 8.5 | 25.4 | 147 | 0.9 | 11.8 | 16.9 | 220
2 | COc1cc(C)c2[nH]ccc2c1CN1CCC2(CC(F)(F)C2)C[C@]12CCCc1cc(C(=O)O)ccc12 (single isomer, unassigned) [Example 2 isomer 1] | 2.01 | – | – | – | – | 129 | 2.2 | 13.6 | 19.6 | 283
3 | COc1cc(C)c2[nH]ccc2c1CN1CCC2(CC(F)(F)C2)C[C@@]1(C)c1ccc(C(=O)O)cc1 (single isomer, unassigned) [Example 3 isomer 1] | 1.14 | – | – | – | – | 193 | 1.73 | 12.6 | 18.2 | 252
